Values joined by “and” are separate entries in the source; they are usually repeats but may differ in a detail not shown here. Equal values may be shown once.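 Test compounds were applied to cells in 96-well plates for 48 hours at 5 doses. GI50 = concentration required for 50% inhibition of growth. TGI marks complete inhibition of growth.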
Key:
Experiment in all cases: NCI-60 cell line screen, 48 h
TK-10 renal = system: TK-10 renal
MOLT-4 leukemia = system: MOLT-4 leukemia
DMS 273 small cell lung = system: DMS 273 small cell lung
HCC-2998 colon = system: HCC-2998 colon
IGROV1 ovarian = system: IGROV1 ovarian
SNB-78 CNS = system: SNB-78 CNS
CAKI-1 renal = system: CAKI-1 renal
786-0 renal = system: 786-0 renal
HS 578T breast = system: HS 578T breast
HCT-116 colon = system: HCT-116 colon

| SMILES | TGI (TK-10 renal) | TGI (MOLT-4 leukemia) [µM] | TGI (DMS 273 small cell lung) [µM] | TGI (HCC-2998 colon) | TGI (IGROV1 ovarian) | TGI (SNB-78 CNS) [µM] | TGI (CAKI-1 renal) | TGI (786-0 renal) | TGI (HS 578T breast) | TGI (HCT-116 colon) | GI50 (IGROV1 ovarian) [µM] | GI50 (786-0 renal) [µM] | GI50 (HS 578T breast) [µM] | GI50 (TK-10 renal) [µM] | GI50 (MOLT-4 leukemia) [µM] | GI50 (DMS 273 small cell lung) [µM] | GI50 (CAKI-1 renal) [µM] | GI50 (HCT-116 colon) [µM] | GI50 (HCC-2998 colon) [µM] | GI50 (SNB-78 CNS) [µM] |
| --- | --- | --- | --- | --- | --- | --- | --- | --- | --- | --- | --- | --- | --- | --- | --- | --- | --- | --- | --- | --- |
| COC(=O)c1ccccc1NC(=O)C(=O)CC(=O)c1ccccc1NC1=CC(=O)C(=O)c2ccccc21 | > 95.1 µM | 51.1 | 25.8 | 66.7 µM | > 59.6 µM | > 100 | 74.1 µM | 30.8 µM | 37.2 µM | 20 µM |  |  |  |  |  |  |  |  |  |  |
| Cc1cc(O)c2c(c1)C(=O)c1cc(O)cc(O)c1C2=O | > 81.1 µM | > 100 | 62.2 | > 100 µM | > 100 µM | > 100 | 52.9 µM | 84.6 µM | 82.4 µM | > 58.9 µM | 65.2 | 25.5 | 26.2 |  |  |  |  |  |  |  |
| CC1CCCC(C(O)CC2CC(=O)N(c3ccccc3)C(=O)C2)C1=O (centres undefined) | > 100 µM | > 100 | > 100 | > 100 µM | > 100 µM | > 100 | > 100 µM | > 100 µM |  | > 100 µM |  |  |  |  |  |  |  |  |  |  |
| C#CCN1CCN(C(=S)N/N=C(\C)c2ccccn2)CC1 | 5.5 µM and 6.36 µM | 2.28 | 4.57 | 4.38 µM | 3.3 µM | 21.7 | 12.8 µM | 4.62 µM and 4.87 µM | 6.34 µM and 6.02 µM | 1.22 µM | 0.00303 | 0.243 | 1.94 | 1.58 | 0.136 | 0.0092 | 0.785 |  |  |  |
| CCc1cccc(CC)c1NC(=S)NC(=O)c1ccc(Br)cc1 | > 64.1 µM | 53.9 | > 100 | > 100 µM | > 100 µM | > 100 | > 96 µM | > 100 µM | > 100 µM | > 100 µM |  |  |  |  |  |  |  |  |  |  |
| CCC(=O)OC1CCn2c1nc1c2C(=O)C(C)=C(N2CC2)C1=O (centres undefined) |  | > 83.6 | 0.121 | 0.214 µM and 0.18 µM | 0.237 µM and 1.25 µM | 1.41 | 1.01 µM and 0.511 µM |  | 0.78 µM | 0.779 µM and 0.409 µM | 0.0573 | 0.017 |  | 0.496 | 1.46 |  | 0.233 | 0.0229 |  |  |
| CCC(C(=O)[O-])C(=O)[O-].CCC(C(=O)[O-])C(=O)[O-].N.N.NCCCCCN.[Pt+4].[Pt+4] | > 100 µM | > 100 | > 100 | > 100 µM | > 100 µM | > 100 | > 100 µM | > 100 µM |  | > 100 µM | > 100 | > 100 |  | > 100 | 84.3 | 95.8 | > 100 | > 100 | > 100 | > 100 |
| NC(=O)c1csc(C2C=CC(CO)O2)n1 (centres undefined) | > 100 µM | > 100 | > 100 | > 100 µM | > 100 µM | > 100 | > 100 µM | > 100 µM |  | > 100 µM |  |  |  |  |  |  |  |  |  |  |
| C=C(CN(CC(=C)C(=O)c1ccccc1)C(C)(C)C)C(=O)c1ccccc1 | 27 µM | 10.2 | 32.4 | 33.3 µM | 40.3 µM | 53.7 | 14.5 µM | 24.5 µM |  | 26.8 µM |  |  |  |  |  |  |  |  |  |  |
| C=CCNC1=C(C(=O)OCC)C(=O)CO1 | > 100 µM | > 100 | > 100 | > 100 µM | > 100 µM | > 100 | > 100 µM | > 100 µM |  | > 100 µM |  |  |  |  |  |  |  |  |  |  |
| FC(F)(F)c1ccc(C=NC23CC4CC(CC(C4)C2)C3)cc1 | > 100 µM | > 100 | > 100 | > 100 µM | > 100 µM | > 100 | > 100 µM | > 100 µM |  | > 100 µM |  |  |  |  |  |  |  |  |  |  |
| Cc1ccc(S(=O)(=O)CNC(=S)CCCC(=S)NCS(=O)(=O)c2ccc(C)cc2)cc1 | > 100 µM | > 100 | > 100 | > 100 µM | > 100 µM | > 100 | > 100 µM | > 100 µM |  | > 100 µM |  |  |  |  |  |  |  |  |  |  |
| CCCCCCCCCCCCCC/C(C(=O)OC)=C(/O)C(=O)OCC | > 100 µM | > 100 | > 100 | 37.3 µM | > 100 µM | > 100 | > 100 µM | 38.2 µM |  | > 100 µM |  |  |  |  |  |  |  |  |  |  |
| Cn1cc2c(n1)c(N/N=C/c1ccccc1)nn1nnnc21 | > 100 µM | > 100 | > 100 | > 100 µM | > 100 µM | > 100 | > 100 µM | > 100 µM |  | > 100 µM |  |  |  |  |  |  |  |  |  |  |

Reference: PubChem BioAssay (NCI)
